The results in this text go back to patent US20180179167A1, “Nrf2 REGULATORS” (GlaxoSmithKline Intellectual Property Development Limited, priority 2015, published 2018).

The subject of the assay is NQO1 specific enzyme activity in BEAS-2B cells. Put plainly: BEAS-2B NQO1 MTT Assay. The class given is cell-based. Conditions: Homo sapiens, EC50 of NQO1 specific activity induction, 48 hours with compound. The text has this:
NAD(P)H:quinone oxidoreductase 1 (NQO1), also called DT diaphorase, is a homodimeric FAD-containing enzyme that catalyzes obligatory NAD(P)H-dependent two-electron reductions of quinones and protects cells against the toxic and neoplastic effects of free radicals and reactive oxygen species arising from one-electron reductions. The transcription of NQO1 is finely regulated by Nrf2, and thus NQO1 activity is a good marker for Nrf2 activation. On day one, frozen BEAS-2B cells (ATCC) are thawed in a water bath, counted, and re-suspended at a concentration of 250,000 cells/mL. Fifty microliters of cells are plated in 384 well black clear-bottomed plates. Plates are incubated at 37° C., 5% CO2 overnight. On day two, plates are centrifuged and 50 nL of compound or controls are added to the cells. Plates are then incubated at 37° C., 5% CO2 for 48 hours. On day four, medium is aspirated from the plate and crude cell lysates are made by adding 13 uL of 1× Cell Signaling Technologies lysis buffer with 1 Complete, Mini, EDTA-free Protease Inhibitor Tablet (Roche) for each 10 mL of lysis buffer . After lysis plates are incubated for 20 minutes at room temperature. Two microliters of lysate are removed for use in Cell Titer Glo assay (Promega) and MTT cocktail is prepared (Prochaska et. al. 1998) for measurement of NQO1 activity. Fifty microliters of MTT cocktail is added to each well, plate is centrifuged, and analyzed on an Envision plate reader (Perkin Elmer) using Absorbance 570 nm label for 30 minutes. Product formation is measured kinetically and the EC50 of NQO1 specific activity induction is calculated by plotting the change in absorbance (Delta OD/min) versus the log of compound concentration followed by 3-parameter fitting.
EC50s <1 nM (+++++), EC50s 10 nM-1 nM (++++), EC50s 10-100 nM (+++), EC50s 100 nM-1 uM (++), EC50s 1-10 uM (+), EC50s >10 uM (−), or were not determined (ND).

The term EC50 denotes the midpoint of the concentration-response curve. Take `Cc1c(C(CC(=O)O)c2ccc(Cl)c(CN(C)C(=O)OC(C)(C)C)c2)ccc2c1nnn2C` (centres unmarked) [Example 1, 3-[3-({[(tert-Butoxy)carbonyl](methyl)amino}methyl)-4-chlorophenyl]-3-(1,4-dimethyl-1H-1,2,3-benzotriazol-5-yl)propanoic acid]: the EC50 was in the range of 0.1 to 1 µM.

As to `CN(Cc1cc(C(CC(=O)O)c2ccc3c(c2)nnn3C)ccc1Cl)C(=O)OC1CCCC1` (centres unmarked) [Example 2, 3-[4-Chloro-3-({[(cyclopentyloxy)carbonyl](methyl)amino}methyl)phenyl]-3-(1-methyl-1H-1,2,3-benzotriazol-5-yl)propanoic acid], the EC50 was in the range of 1 to 10 µM.

In the case of `CCC(C)OC(=O)N(C)Cc1cc(C(CC(=O)O)c2ccc3c(c2)nnn3C)ccc1Cl` (centres unmarked) [Example 3, 3-[3-({[(Butan-2-yloxy)carbonyl](methyl)amino}methyl)-4-chlorophenyl]-3-(1-methyl-1H-1,2,3-benzotriazol-5-yl)propanoic acid], the 50% effective concentration (EC50) is 1 to 10 µM.

For the compound `COc1cc(C(CC(=O)O)c2ccc(C)c(CN(C)C(=O)OC(C)(C)C)c2)cc2nnn(C)c12` (centres unmarked) [Example 4, 3-[3-({[(tert-Butoxy)carbonyl](methyl)amino}methyl)-4-methylphenyl]-3-(7-methoxy-1-methyl-1H-1,2,3-benzotriazol-5-yl)propanoic acid], the concentration for a half-maximal effect (EC50) fell in the range of 1 to 10 µM.

As to `CN(Cc1cc(C(CC(=O)O)c2ccc3c(c2)nnn3C)ccc1Cl)C(=O)OC1CCCCC1` (centres unmarked) [Example 5, 3-(4-Chloro-3-((((cyclohexyloxy)carbonyl)(methyl)amino)methyl)phenyl)-3-(1-methyl-1H-benzo[d][1,2,3]triazol-5-yl)propanoic acid], the EC50 is 1 to 10 µM.

In the case of `COc1cc(C(CC(=O)O)c2ccc(Cl)c(CN(C)C(=O)OC(C)(C)C)c2)cc2nnn(C)c12` (centres unmarked) [Example 6, 3-(3-(((tert-Butoxycarbonyl)(methyl)amino)methyl)-4-chlorophenyl)-3-(7-methoxy-1-methyl-1H-benzo[d][1,2,3]triazol-5-yl)propanoic acid], the EC50 lay in the range of 0.1 to 1 µM.

As for `Cc1ccc(C(CC(=O)O)c2ccc3c(c2)nnn3C)cc1OCC(=O)N(C)C` (centres unmarked) [Example 7, 3-(3-(2-(Dimethylamino)-2-oxoethoxy)-4-methylphenyl)-3-(1-methyl-1H-benzo[d][1,2,3]triazol-5-yl)propanoic acid], the concentration for a half-maximal effect (EC50) was in the range of 1 to 10 µM.

With `Cc1ccc(C(CC(=O)O)c2ccc3c(nnn3C)c2C)cc1CN(C)C(=O)Oc1ccc([N+](=O)[O-])cc1` (centres unmarked) [Example 8, 3-(1,4-Dimethyl-1H-benzo[d][1,2,3]triazol-5-yl)-3-(4-methyl-3-((methyl((4-nitrophenoxy)carbonyl)amino)methyl)phenyl)propanoic acid], the EC50 fell in the range of 1 to 10 µM.

On to `COc1cc(C(CC(=O)O)c2ccc(Cl)c(CN(C)C(=O)OC3CCCC3)c2)cc2nnn(C)c12` (centres unmarked) [Example 9, 3-(4-Chloro-3-((((cyclopentyloxy)carbonyl)(methyl)amino)methyl)phenyl)-3-(7-methoxy-1-methyl-1H-benzo[d][1,2,3]triazol-5-yl)propanoic acid], for which the concentration giving a half-maximal response (EC50) was 1 to 10 µM.

With `COCC(C)(C)OC(=O)N(C)Cc1cc(C(CC(=O)O)c2ccc3c(nnn3C)c2C)ccc1C` (centres unmarked) [Example 10], the 50% effective concentration (EC50) was in the range of 1 to 10 µM.

Take `CC(=O)N(Cc1cc(C(CC(=O)O)c2ccc3c(nnn3C)c2C)ccc1C)CC1CCCCC1` (centres unmarked) [Example 11, 3-(3-((N-(Cyclohexylmethyl)acetamido)methyl)-4-methylphenyl)-3-(1,4-dimethyl-1H-benzo[d][1,2,3]triazol-5-yl)propanoic acid]: the EC50 is 1 to 10 µM.

On to `CC(=O)N(Cc1ccccc1)Cc1cc(C(CC(=O)O)c2ccc3c(nnn3C)c2C)ccc1C` (centres unmarked) [Example 12, 3-(3-((N-Benzylacetamido)methyl)-4-methylphenyl)-3-(1,4-dimethyl-1H-benzo[d][1,2,3]triazol-5-yl)propanoic acid], for which the half-maximal effective concentration (EC50) was 1 to 10 µM.

As for `CC(=O)N(Cc1cccc(C)c1)Cc1cc(C(CC(=O)O)c2ccc3c(nnn3C)c2C)ccc1C` (centres unmarked) [Example 13, 3-(1,4-Dimethyl-1H-benzo[d][1,2,3]triazol-5-yl)-3-(4-methyl-3-((N-(3-methylbenzyl)acetamido)methyl)phenyl)propanoic acid], the EC50 fell in the range of 1 to 10 µM.

In the case of `CC(=O)N(Cc1cc(C(CC(=O)O)c2ccc3c(nnn3C)c2C)ccc1C)Cc1cccc(C)c1C` (centres unmarked) [Example 14, 3-(1,4-Dimethyl-1H-benzo[d][1,2,3]triazol-5-yl)-3-(3-((N-(2,3-dimethylbenzyl)acetamido)methyl)-4-methylphenyl)propanoic acid], the EC50 was 1 to 10 µM.

Regarding `COc1ccc(CN(Cc2cc(C(CC(=O)O)c3ccc4c(nnn4C)c3C)ccc2C)C(C)=O)cc1` (centres unmarked) [Example 15, 3-(1,4-Dimethyl-1H-benzo[d][1,2,3]triazol-5-yl)-3-(3-((N-(4-methoxybenzyl)acetamido)methyl)-4-methylphenyl)propanoic acid], the 50% effective concentration (EC50) was 1 to 10 µM.

Consider `CCc1ccc(CN(Cc2cc(C(CC(=O)O)c3ccc4c(nnn4C)c3C)ccc2C)C(C)=O)cc1` (centres unmarked) [Example 16, 3-(1,4-Dimethyl-1H-benzo[d][1,2,3]triazol-5-yl)-3-(3-((N-(4-ethylbenzyl)acetamido)methyl)-4-methylphenyl)propanoic acid], for which the EC50 was in the range of 1 to 10 µM.

Turning to `CCC1CCC(CN(Cc2cc(C(CC(=O)O)c3ccc4c(nnn4C)c3C)ccc2C)C(C)=O)CC1` (centres unmarked) [Example 17, 3-(1,4-Dimethyl-1H-benzo[d][1,2,3]triazol-5-yl)-3-(3-((N-((4-ethylcyclohexyl)methyl)acetamido)methyl)-4-methylphenyl)propanoic acid], the EC50 lay in the range of 0.01 to 0.1 µM.

For the compound `Cc1ccc(C(CC(=O)O)c2ccc3c(nnn3C)c2C)cc1CN(CC1CCCCC1)C(N)=O` (centres unmarked) [Example 18, 3-(3-((1-(Cyclohexylmethyl)ureido)methyl)-4-methylphenyl)-3-(1,4-dimethyl-1H-benzo[d][1,2,3]triazol-5-yl)propanoic acid], the EC50 was in the range of 1 to 10 µM.

With `CCC1CCC(CN(Cc2cc(C(CC(=O)O)c3ccc4c(nnn4C)c3C)ccc2C)C(N)=O)CC1` (centres unmarked) [Example 19, 3-(1,4-Dimethyl-1H-benzo[d][1,2,3]triazol-5-yl)-3-(3-((1-((4-ethylcyclohexyl)methyl)ureido)methyl)-4-methylphenyl)propanoic acid], the EC50 was in the range of 1 to 10 µM.

For `COc1cc(C(CC(=O)O)c2ccc(C)c(CN(CC3CCCCC3)C(C)=O)c2)cc2nnn(C)c12` (centres unmarked) [Example 20, 3-(3-((N-(Cyclohexylmethyl)acetamido)methyl)-4-methylphenyl)-3-(7-methoxy-1-methyl-1H-benzo[d][1,2,3]triazol-5-yl)propanoic acid], the EC50 fell in the range of 0.1 to 1 µM.

As to `CCC1CCC(CN(Cc2cc(C(c3ccc4c(nnn4C)c3C)C(C)(C)C(=O)O)ccc2C)C(N)=O)CC1` (centres unmarked) [Example 22, 3-(1,4-Dimethyl-1H-benzo[d][1,2,3]triazol-5-yl)-3-(3-((1-((4-ethylcyclohexyl)methyl)ureido)methyl)-4-methylphenyl)-2,2-dimethylpropanoic acid], the EC50 is 0.001 to 0.01 µM.

Consider `Cc1ccc([C@@H](c2ccc3c(nnn3C)c2C)C(C)(C)C(=O)O)cc1CN(CC1CCCCCC1)C(N)=O` [Example 23, (S)-3-(3-((1-(Cycloheptylmethyl)ureido)methyl)-4-methylphenyl)-3-(1,4-dimethyl-1H-benzo[d][1,2,3]triazol-5-yl)-2,2-dimethylpropanoic acid], for which the EC50 was 0.001 to 0.01 µM.

Regarding `CCC1CCC(O)(CN(Cc2cc([C@@H](c3ccc4c(nnn4C)c3C)C(C)(C)C(=O)O)ccc2C)C(N)=O)CC1` (stereo partly drawn) [Example 24, (S)-3-(1,4-Dimethyl-1H-benzo[d][1,2,3]triazol-5-yl)-3-(3-((1-((4-ethyl-1-hydroxycyclohexyl)methyl)ureido)methyl)-4-methylphenyl)-2,2-dimethylpropanoic acid], the half-maximal effective concentration (EC50) was 0.01 to 0.1 µM.

On to `Cc1ccc([C@@H](c2ccc3c(nnn3C)c2C)C(C)(C)C(=O)O)cc1CN(CC1(O)CCCCCC1)C(N)=O` [Example 25, (S)-3-(1,4-Dimethyl-1H-benzo[d][1,2,3]triazol-5-yl)-3-(3-((1-((1-hydroxycycloheptyl)methyl)ureido)methyl)-4-methylphenyl)-2,2-dimethylpropanoic acid], for which the EC50 fell in the range of 0.1 to 1 µM.

As for `CC(=O)N(Cc1cc(C(c2ccc3c(nnn3C)c2C)C(C)(C)C(=O)O)ccc1C)CC1(O)CCCCC1` (centres unmarked) [Example 26, 3-(1,4-Dimethyl-1H-benzo[d][1,2,3]triazol-5-yl)-3-(3-((N-((1-hydroxycyclohexyl)methyl)acetamido)methyl)-4-methylphenyl)-2,2-dimethylpropanoic acid], the concentration giving a half-maximal response (EC50) lay in the range of 0.1 to 1 µM.

For the compound `CC(=O)N(Cc1cc(C(CC(=O)O)c2ccc3c(nnn3C)c2C)ccc1C)CC1CCCCCC1` (centres unmarked) [Example 27, 3-(3-((N-(Cycloheptylmethyl)acetamido)methyl)-4-methylphenyl)-3-(1,4-dimethyl-1H-benzo[d][1,2,3]triazol-5-yl)propanoic acid], the concentration for a half-maximal effect (EC50) lay within 0.1 to 1 µM.
